Counter-ions that a name gives are not always drawn.
Assay: Pharmacokinetic property (plasma concentration), crossover, tablets (FIG. 3)
Type: in vivo
Details: male beagle dogs, tablets with Samples 5 to 7
Procedure: A crossover design of taking all three tablets (active ingredients having a particle size of Samples 5 to 7) was applied to this experimentation, and the three tablets were administered to male beagle dogs once each with a 14-day wash-out period. Each dose was taken with 50 mL of water while maintaining the fasted state for at least 14 hours. The results are represented in FIG. 3.

CC(C)n1nc(Cl)c2cc(COc3ccc4c(c3)CCC(CN3CCC(C(=O)O)CC3)=C4Cl)ccc21 [API, 1-[1-chloro-6-(3-chloro-1-isopropyl-1H-indazol-5-ylmethoxy)-3,4-dihydro-naphthalen-2-ylmethyl]-piperidine-4-carboxylic acid hydrochloride]
particle size d(0.9) based on Cmax to show bioequivalence in terms of pharmacokinetics: ≤ 60 μm

Reference: US20240207242A1, “PHARMACEUTICAL COMPOSITION COMPRISING SPHINGOSINE-1-PHOSPHATE RECEPTOR AGONIST WITH CONTROLLED PARTICLE SIZE” (LG CHEM, LTD., priority 2021, published 2024)
